Values joined by “and” are separate entries in the source; they are usually repeats but may differ in a detail not shown here. Equal values may be shown once. Read-outs that look alike come from different tables or passages of the source. Numbered stars: 1 amine (or outer) side, 2 acyl side, 3 side chain; on linkers, the order of the positions; unused ones are H or OH. Square brackets hold non-standard residues; d marks the D form. Peptide text beside a SMILES is read from it. * marks the point of attachment. C18 diacid = O=C(O)CCCCCCCCCCCCCCCCC(=O)*; Phe(4-F) = N[C@@H](Cc1ccc(F)cc1)C(=O)O; γGlu = O=C(O)[C@H](CCC(=O)[*:2])N[*:1]; NMeL = CN[C@@H](CC(C)C)C(=O)O; hSer = N[C@@H](CCO)C(=O)O; Nle = CCCC[C@H](N)C(=O)O; AEEA = NCCOCCOCC(=O)O; Aib = CC(C)(N)C(=O)O
Legend:
hNK1R = molecular target: T1, hNK1R (Homo sapiens, UniProt P25103); experiment: IP3 assay (inositol trisphosphate, 3H-myoinositol) in transiently transfected COS-7 cells; format: cell-based; conditions: for EC50: 0.2% ovalbumin buffer
T1 construct: host or cells: COS-7
Outline: (§1)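 COS-7 cells were transiently transfected with receptor plasmid and labelled with ³H-myo-inositol. Cells were lysed in formic acid, and ³H-inositol phosphates were captured on SPA YSI beads and counted.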

hNK2R [1] = molecular target: T2, hNK2R (Homo sapiens, UniProt P21452); experiment: as above; format: cell-based; conditions: for EC50: 0.2% ovalbumin buffer
T2 construct: host or cells: COS-7
T2 sequence (P21452 1-398): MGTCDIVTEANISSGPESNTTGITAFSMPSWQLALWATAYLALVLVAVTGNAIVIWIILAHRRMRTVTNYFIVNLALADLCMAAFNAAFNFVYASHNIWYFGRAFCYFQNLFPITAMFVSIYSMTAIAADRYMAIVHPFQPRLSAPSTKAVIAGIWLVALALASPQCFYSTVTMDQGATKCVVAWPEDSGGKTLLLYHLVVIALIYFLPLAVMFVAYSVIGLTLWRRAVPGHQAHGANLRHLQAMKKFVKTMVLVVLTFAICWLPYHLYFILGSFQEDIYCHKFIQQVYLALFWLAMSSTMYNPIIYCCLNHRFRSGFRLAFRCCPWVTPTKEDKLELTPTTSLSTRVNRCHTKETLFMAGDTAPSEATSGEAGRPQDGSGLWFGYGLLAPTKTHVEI
Outline: as §1

hNK3R = molecular target: T3, hNK3R (Homo sapiens, UniProt P29371); experiment: as above; format: cell-based; conditions: for EC50: 0.2% ovalbumin buffer, read-out: hNK3, IP3 EC50
T3 construct: host or cells: COS-7
T3 sequence (P29371 1-465): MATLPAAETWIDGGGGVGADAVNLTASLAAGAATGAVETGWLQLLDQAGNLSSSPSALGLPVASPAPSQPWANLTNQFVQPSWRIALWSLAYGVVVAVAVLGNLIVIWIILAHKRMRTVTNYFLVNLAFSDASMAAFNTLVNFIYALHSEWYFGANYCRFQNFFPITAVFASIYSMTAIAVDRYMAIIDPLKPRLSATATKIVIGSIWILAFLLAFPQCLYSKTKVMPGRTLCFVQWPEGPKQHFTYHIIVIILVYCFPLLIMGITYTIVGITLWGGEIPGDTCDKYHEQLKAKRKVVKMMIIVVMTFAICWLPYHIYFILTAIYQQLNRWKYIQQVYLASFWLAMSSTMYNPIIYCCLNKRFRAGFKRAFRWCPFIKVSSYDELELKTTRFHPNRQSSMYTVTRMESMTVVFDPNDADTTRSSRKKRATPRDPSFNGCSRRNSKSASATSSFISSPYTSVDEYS
Outline: as §1

hNK2R [2] = molecular target: T2, hNK2R; experiment: Hithunter cAMP assay (Gs-coupling) in transfected COS-7 cells; format: cell-based
Description: (§2) As a secondary measure of agonist-induced G-protein coupled receptor (GPCR) activation cyclin adenosine monophosphate (cAMP) was measured by the Hithunter cAMP-assay from DiscoverX. Assays were carried out using COS-7 cells transiently transfected by calcium phosphate transfection with a vector pcDNA3.1(+) encoding one of the indicated receptors (Genscript). Briefly, DNA mixed with CaCl2 (2 M) and TE-buffer (10 mM Tris-HCl, 1 mM EDTA, pH 7.5) was dropwise added to 2×HBS (50 mM HEPES, 280 mM NaCl, 1.5 mM NaH2PO4, pH 7.2) and incubated for 45 min at room temperature (22±2° C.). The mixture and a final concentration of 100 μM Chloroquine were added to the cells and left to incubate for 5 hours at 37° C. under standard cell culture conditions (10% CO2) before changing medium to fresh maintenance medium.
The cAMP-assay takes advantage of the tachykinin receptors' ability to induce production of the cAMP second messenger upon agonist (ligand) binding on receptor expressing cells. Production of cAMP stems from receptor coupling to Gs-protein although coupling to Gq-protein (IP3-production) is considered the primary signalling mechanism by tachykinin receptors.
The assay was performed the day after transfection. Briefly, maintenance medium was aspirated, and plates were washed ×1 in HBSS before adding assay buffer (HBSS+1 mM IBMX), pre-incubated for 30 min at 37° C. followed by 15 min incubation with agonist (ligand) at 37° C. After incubation, plates were subjected to cell lysis and anti-cAMP-antibody incubation as described by manufacturer. Luminescence was measured with EnVision Multimode Plate Reader from Perkin Elmer.

hNK2R [3] = molecular target: T2, hNK2R; experiment: 3H-NKA competitive binding on transfected COS-7 cells; conditions: competition with 3H-NKA, 4 h at 4 C
Description: as §2, with “Assays” for “As a secondary measure of agonist-induced G-protein coupled receptor (GPCR) activation cyclin adenosine monophosphate (cAMP) was measured by the Hithunter cAMP-assay from DiscoverX. Assays”
The ^3H-NKA binding assay measures peptide-receptor binding by a competitive principle of receptor binding between radioactively labelled (3H) NKA (tracer) and synthesized peptide ligands on live cells expressing the receptor of interest. Assay solutions used: TKR buffer (50 mM Tris/HCl pH 7.5, 5 mM MnCl2, and 150 mM NaCl), wash buffer (TKR buffer+0.2% w/v OvAlb), binding buffer (wash buffer+0.1 mg/ml Bacitracin), and tracer solution (binding buffer+˜15000 cpm/well ^3H-tracer). The assay was performed on ice the day after transfection.
Briefly, maintenance medium was aspirated, and plates were washed ×1 in cold wash buffer before adding 100 μl cold binding buffer and placing at 4° C. to let plates cool. The cold plates were added indicated peptides (ligand) immediately followed by addition of cold tracer solution (˜15000 cpm/well). Plates were immediately moved to 4° C. and incubated for 4 hours. After incubation, binding was stopped by wash ×2 with cold wash buffer before adding 225 μl Ultima Gold XR. Plates were shaken at medium speed for approximately 30 min and left overnight at room temperature before counting the plates in a MicroBeta plate counter (Perkin Elmer).

[4] = COS-7 cells, figure legends: percent of 10^-6 M NKA

T1 sequence (P25103 whole entry): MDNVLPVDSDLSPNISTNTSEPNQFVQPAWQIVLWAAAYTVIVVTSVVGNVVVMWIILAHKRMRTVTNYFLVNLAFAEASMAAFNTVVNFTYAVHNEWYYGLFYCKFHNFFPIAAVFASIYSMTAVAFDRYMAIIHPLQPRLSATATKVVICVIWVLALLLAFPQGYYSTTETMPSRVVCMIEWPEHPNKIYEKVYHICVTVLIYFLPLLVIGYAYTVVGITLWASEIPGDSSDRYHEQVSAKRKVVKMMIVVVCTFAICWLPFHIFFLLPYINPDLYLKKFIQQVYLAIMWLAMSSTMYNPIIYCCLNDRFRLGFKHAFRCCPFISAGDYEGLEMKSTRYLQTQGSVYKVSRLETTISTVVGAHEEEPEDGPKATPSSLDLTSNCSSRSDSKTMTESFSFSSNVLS

| SMILES | hNK1R, IP3 Efficacy (hNK1R) [%] | hNK2R, IP3 Efficacy (hNK2R [1]) [%] | EC50 (hNK2R [1]; COS-7 cells) [nM] | hNK3, IP3 Efficacy (hNK3R) [%] | hNK2R, cAMP Efficacy (hNK2R [2]) [%] | EC50 (hNK2R [3]) [nM] | EC50 (hNK1R; COS-7 cells) | hNK1R, IP3 Efficacy (hNK1R; [4]) | hNK2R, IP3 Efficacy (hNK2R [1]; [4]) | EC50 (hNK3R; COS-7 cells) [nM] | hNK3, IP3 Efficacy (hNK3R; [4]) | Gs activation (cAMP), in words (hNK2R [2]) | hNK2R, cAMP Efficacy (hNK2R [2]; COS-7 cells) [%] | EC50 (hNK2R [2]; COS-7 cells) [nM] |
| --- | --- | --- | --- | --- | --- | --- | --- | --- | --- | --- | --- | --- | --- | --- |
| CCCC[C@H](NC(=O)[C@H](CC(C)C)NC(=O)C(C)(C)NC(=O)[C@@H](NC(=O)[C@H](Cc1ccc(O)cc1)NC(=O)[C@H](CCCCN)NC(=O)[C@H](CC(=O)O)NC(=O)COCCOCCNC(=O)COCCOCCNC(=O)CC[C@H](NC(=O)CCCCCCCCCCCCCCCCC(=O)O)C(=O)O)C(C)C)C(N)=O [compound 395, *Asp;Lys;Tyr;Val;Aib;Leu;Nle;NH2] ({C18 diacid-γGlu-AEEA-AEEA}-DKYV[Aib]L[Nle]-NH2) | 0 | 68 | 9 | 0 | 0 | ~104 |  |  |  |  |  |  |  |  |
| CCCC[C@H](NC(=O)[C@H](CC(C)C)N(C)C(=O)CNC(=O)[C@@H](NC(=O)[C@H](Cc1ccc(O)cc1)NC(=O)[C@H](CCCCN)NC(=O)[C@H](CCC(=O)O)NC(=O)COCCOCCNC(=O)COCCOCCNC(=O)CC[C@H](NC(=O)CCCCCCCCCCCCCCCCC(=O)O)C(=O)O)C(C)C)C(N)=O [compound 336, *Glu;Lys;Tyr;Val;Gly;NmLeu;Nle;NH2] ({C18 diacid-γGlu-AEEA-AEEA}-EKYVG[NMeL][Nle]-NH2) |  |  | 4 |  |  | 80 | ~26000 nM and ~27000 nM | 30% and 25% | 80% and 75% | ~3800 | 10% and 0% | does not activate Gs | 0 |  |
| COCC[C@H](NC(=O)[C@H](CC(C)C)N(C)C(=O)CNC(=O)[C@@H](NC(=O)[C@H](Cc1ccc(O)cc1)NC(=O)[C@H](CCCCN)NC(=O)[C@H](CC(=O)O)NC(=O)COCCOCCNC(=O)COCCOCCNC(=O)CC[C@H](NC(=O)CCCCCCCCCCCCCCCCC(=O)O)C(=O)O)[C@@H](C)O)C(N)=O [compound 366, *Asp;Lys;Tyr;Thr;Gly;NmLeu;Metox;NH2] ({C18 diacid-γGlu-AEEA-AEEA}-DKYTG[NMeL][hSer](Me)-NH2) |  |  | 12 |  |  | ~104 |  | 0% | 100% |  | 0% |  | 80 | ~120 |
| CC(C)C[C@@H](C(=O)N[C@@H](Cc1ccc(F)cc1)C(N)=O)N(C)C(=O)CNC(=O)[C@@H](NC(=O)[C@H](Cc1ccc(O)cc1)NC(=O)[C@H](CCCCN)NC(=O)[C@H](CC(=O)O)NC(=O)COCCOCCNC(=O)COCCOCCNC(=O)CC[C@H](NC(=O)CCCCCCCCCCCCCCCCC(=O)O)C(=O)O)C(C)C [compound 369, *Asp;Lys;Tyr;Val;Gly;NmLeu;4-F-Phe;NH2] ({C18 diacid-γGlu-AEEA-AEEA}-DKYVG[NMeL][Phe(4-F)]-NH2) |  |  | 1.7 |  |  | 76 | ~250 nM | 40% | 90% | ~190 | 25% |  | 80 | 54 |
| CSCC[C@H](NC(=O)[C@H](CC(C)C)N(C)C(=O)CNC(=O)[C@@H](NC(=O)[C@H](Cc1ccc(O)cc1)NC(=O)[C@H](CCCCN)NC(=O)[C@H](CC(=O)O)NC(=O)COCCOCCNC(=O)COCCOCCNC(=O)CC[C@H](NC(=O)CCCCCCCCCCCCCCCCC(=O)O)C(=O)O)C(C)C)C(N)=O [compound 316, *Asp;Lys;Tyr;Val;Gly;NmLeu;Met;NH2] ({C18 diacid-γGlu-AEEA-AEEA}-DKYVG[NMeL]M-NH2) |  |  | 12 |  |  | 41 | 20 nM | 100% | 120% | ~160 | 50% |  | 100 | 20 |

— patent US20230406883A1, “COMPOUNDS AND THEIR USE IN TREATMENT OF TACHYKININ RECEPTOR MEDIATED DISORDERS” (Embark Biotech ApS, priority 2020, published 2023)
